Legend:
Assay in all cases: KINOMEscan competition binding
Settings in all cases: compound 10.0 µM
[1] = biological target: ACVRL1 (human) (UniProt P37023)
[2] = biological target: AKT1 (human) (UniProt P31749)
[3] = biological target: ANKK1 (human) (UniProt Q8NFD2)
[4] = biological target: CAMK1D (human) (UniProt Q8IU85)
[5] = biological target: CAMK4 (human) (UniProt Q16566)
[6] = biological target: CAMKK1 (human) (UniProt Q8N5S9)
[7] = biological target: CDK11B (human) (UniProt P21127)
[8] = biological target: DAPK1 (human) (UniProt P53355)
[9] = biological target: DCLK2 (human) (UniProt Q8N568)
[10] = biological target: DCLK3 (human) (UniProt Q9C098)
[11] = biological target: EPHA6 (human) (UniProt Q9UF33)
[12] = biological target: EPHB2 (human) (UniProt P29323)
[13] = biological target: ERBB4 (human) (UniProt Q15303)
[14] = biological target: FLT1 (human) (UniProt P17948)
[15] = tested on: KIT (human), P10721 [D816V]
[16] = biological target: LATS2 (human) (UniProt Q9NRM7)
[17] = biological target: LYN (human) (UniProt P07948)
[18] = biological target: MAP3K12 (human) (UniProt Q12852)
[19] = biological target: MAP4K2 (human) (UniProt Q12851)
[20] = biological target: MAPK15 (human) (UniProt Q8TD08)
[21] = biological target: MAPKAPK2 (human) (UniProt P49137)
[22] = biological target: MAPKAPK5 (human) (UniProt Q8IW41)
[23] = biological target: MYLK4 (human) (UniProt Q86YV6)
[24] = biological target: NEK2 (human) (UniProt P51955)
[25] = biological target: NTRK2 (human) (UniProt Q16620)
[26] = biological target: NUAK1 (human) (UniProt O60285)
[27] = biological target: PHKG1 (human) (UniProt Q16816)
[28] = biological target: PIM3 (human) (UniProt Q86V86)
[29] = biological target: PRKCE (human) (UniProt Q02156)
[30] = biological target: PRKG1 (human) (UniProt Q13976)
[31] = biological target: PRKG2 (human) (UniProt Q13237)
[32] = biological target: RET (human) (UniProt P07949)
[33] = biological target: RIPK4 (human) (UniProt P57078)
[34] = biological target: RPS6KA2 KD1 (human) (UniProt Q15349)
[35] = biological target: RPS6KA5 KD2 (human) (UniProt O75582)
[36] = biological target: RPS6KA6 KD2 (human) (UniProt Q9UK32)
[37] = biological target: STK10 (human) (UniProt O94804)
[38] = biological target: TEK (human) (UniProt Q02763)
[39] = biological target: ULK3 (human) (UniProt Q6PHR2)
[40] = biological target: WEE1 (human) (UniProt P30291)

Sequence of MAP4K2 (human) (Q12851 whole entry, looked up): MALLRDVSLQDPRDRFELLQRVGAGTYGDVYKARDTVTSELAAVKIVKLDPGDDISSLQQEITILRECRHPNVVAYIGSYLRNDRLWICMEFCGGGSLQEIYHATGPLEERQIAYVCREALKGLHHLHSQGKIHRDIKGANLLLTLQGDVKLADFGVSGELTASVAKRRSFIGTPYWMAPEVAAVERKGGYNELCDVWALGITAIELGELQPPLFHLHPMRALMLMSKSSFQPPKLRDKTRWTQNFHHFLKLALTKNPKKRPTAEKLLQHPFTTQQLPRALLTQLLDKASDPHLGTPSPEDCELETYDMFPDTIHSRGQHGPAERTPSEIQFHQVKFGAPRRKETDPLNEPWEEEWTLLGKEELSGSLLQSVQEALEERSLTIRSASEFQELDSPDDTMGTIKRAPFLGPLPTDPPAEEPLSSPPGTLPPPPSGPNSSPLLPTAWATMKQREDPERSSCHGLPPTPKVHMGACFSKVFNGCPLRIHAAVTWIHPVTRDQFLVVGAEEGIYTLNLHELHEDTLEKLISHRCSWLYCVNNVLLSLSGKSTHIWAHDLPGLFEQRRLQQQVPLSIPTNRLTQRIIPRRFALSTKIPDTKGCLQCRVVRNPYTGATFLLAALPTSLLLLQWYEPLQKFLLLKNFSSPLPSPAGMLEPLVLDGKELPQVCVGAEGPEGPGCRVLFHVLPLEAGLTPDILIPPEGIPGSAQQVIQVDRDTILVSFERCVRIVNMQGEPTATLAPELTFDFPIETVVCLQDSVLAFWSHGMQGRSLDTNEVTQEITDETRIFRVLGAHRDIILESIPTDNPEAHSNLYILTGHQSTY
Sequence of PRKG1 (human) (Q13976 whole entry, looked up): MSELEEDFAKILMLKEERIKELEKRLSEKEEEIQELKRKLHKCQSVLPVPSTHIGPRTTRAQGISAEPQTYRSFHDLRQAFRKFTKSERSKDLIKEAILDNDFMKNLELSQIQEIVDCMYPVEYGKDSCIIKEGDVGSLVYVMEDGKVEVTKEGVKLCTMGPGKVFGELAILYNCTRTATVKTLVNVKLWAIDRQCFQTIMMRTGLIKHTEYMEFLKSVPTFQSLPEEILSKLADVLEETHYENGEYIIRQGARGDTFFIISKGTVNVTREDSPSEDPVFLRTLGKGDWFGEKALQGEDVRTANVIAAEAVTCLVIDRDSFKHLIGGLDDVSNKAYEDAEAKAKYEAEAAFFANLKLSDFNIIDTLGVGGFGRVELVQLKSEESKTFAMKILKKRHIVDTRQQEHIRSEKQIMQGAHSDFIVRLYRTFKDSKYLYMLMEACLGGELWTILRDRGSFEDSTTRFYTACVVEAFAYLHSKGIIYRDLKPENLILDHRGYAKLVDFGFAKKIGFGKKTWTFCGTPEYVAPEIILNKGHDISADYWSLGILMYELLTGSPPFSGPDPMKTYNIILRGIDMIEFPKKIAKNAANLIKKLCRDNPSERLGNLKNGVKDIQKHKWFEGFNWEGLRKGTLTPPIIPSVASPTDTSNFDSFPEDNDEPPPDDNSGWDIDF
Sequence of DCLK3 (human) (Q9C098 whole entry, looked up): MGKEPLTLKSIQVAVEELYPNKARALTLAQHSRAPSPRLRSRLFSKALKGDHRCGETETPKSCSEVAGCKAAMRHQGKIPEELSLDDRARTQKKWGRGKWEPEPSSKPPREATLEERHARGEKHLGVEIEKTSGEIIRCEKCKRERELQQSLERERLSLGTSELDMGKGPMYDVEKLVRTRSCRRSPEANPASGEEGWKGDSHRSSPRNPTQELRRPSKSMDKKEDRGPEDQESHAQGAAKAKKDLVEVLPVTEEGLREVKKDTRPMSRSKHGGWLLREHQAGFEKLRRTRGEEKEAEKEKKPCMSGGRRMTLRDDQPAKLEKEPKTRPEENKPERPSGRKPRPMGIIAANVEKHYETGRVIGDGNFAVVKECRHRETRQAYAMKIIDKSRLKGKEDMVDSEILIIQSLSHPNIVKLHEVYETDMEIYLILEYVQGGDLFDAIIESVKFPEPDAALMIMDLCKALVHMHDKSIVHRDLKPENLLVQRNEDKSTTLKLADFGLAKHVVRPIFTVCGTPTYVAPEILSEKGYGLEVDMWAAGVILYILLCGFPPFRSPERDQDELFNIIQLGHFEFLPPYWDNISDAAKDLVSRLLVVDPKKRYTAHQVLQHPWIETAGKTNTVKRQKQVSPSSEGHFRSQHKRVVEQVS
Sequence of LYN (human) (P07948 whole entry, looked up): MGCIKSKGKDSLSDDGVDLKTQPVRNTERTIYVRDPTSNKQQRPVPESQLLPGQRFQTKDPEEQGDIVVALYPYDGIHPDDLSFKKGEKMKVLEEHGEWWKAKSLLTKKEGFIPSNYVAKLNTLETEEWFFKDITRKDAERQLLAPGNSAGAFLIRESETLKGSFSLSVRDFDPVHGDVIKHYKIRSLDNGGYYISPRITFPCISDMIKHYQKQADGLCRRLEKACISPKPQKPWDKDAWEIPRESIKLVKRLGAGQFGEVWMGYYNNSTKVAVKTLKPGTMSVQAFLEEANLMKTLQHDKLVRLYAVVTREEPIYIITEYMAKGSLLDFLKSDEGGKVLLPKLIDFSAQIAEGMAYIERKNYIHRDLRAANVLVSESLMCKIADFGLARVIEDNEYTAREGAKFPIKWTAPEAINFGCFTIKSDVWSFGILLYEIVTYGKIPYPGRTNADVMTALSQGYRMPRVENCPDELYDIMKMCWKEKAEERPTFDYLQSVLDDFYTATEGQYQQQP
Sequence of NEK2 (human) (P51955 whole entry, looked up): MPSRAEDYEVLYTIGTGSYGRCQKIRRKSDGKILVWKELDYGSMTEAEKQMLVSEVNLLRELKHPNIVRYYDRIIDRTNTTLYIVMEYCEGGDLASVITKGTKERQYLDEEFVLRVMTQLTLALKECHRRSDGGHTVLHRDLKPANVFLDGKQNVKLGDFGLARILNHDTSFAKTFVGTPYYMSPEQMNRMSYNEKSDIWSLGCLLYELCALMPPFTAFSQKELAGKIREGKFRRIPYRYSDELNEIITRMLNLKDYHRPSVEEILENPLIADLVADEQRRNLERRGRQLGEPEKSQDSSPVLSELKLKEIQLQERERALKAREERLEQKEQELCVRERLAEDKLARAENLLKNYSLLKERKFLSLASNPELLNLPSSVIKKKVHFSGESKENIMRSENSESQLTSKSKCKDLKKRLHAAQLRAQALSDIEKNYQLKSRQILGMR
Sequence of MAPKAPK2 (human) (P49137 whole entry, looked up): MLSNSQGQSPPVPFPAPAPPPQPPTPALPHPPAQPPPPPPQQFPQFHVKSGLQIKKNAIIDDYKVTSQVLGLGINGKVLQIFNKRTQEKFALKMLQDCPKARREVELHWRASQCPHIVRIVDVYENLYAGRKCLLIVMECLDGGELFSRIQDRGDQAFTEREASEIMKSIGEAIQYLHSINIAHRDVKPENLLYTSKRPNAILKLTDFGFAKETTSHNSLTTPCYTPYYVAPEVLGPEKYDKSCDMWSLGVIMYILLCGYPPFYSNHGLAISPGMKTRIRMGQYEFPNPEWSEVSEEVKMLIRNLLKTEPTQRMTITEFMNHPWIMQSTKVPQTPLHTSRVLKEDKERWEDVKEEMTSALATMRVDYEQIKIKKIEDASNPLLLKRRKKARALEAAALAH
Sequence of RPS6KA6 KD2 (human) (Q9UK32 whole entry, looked up): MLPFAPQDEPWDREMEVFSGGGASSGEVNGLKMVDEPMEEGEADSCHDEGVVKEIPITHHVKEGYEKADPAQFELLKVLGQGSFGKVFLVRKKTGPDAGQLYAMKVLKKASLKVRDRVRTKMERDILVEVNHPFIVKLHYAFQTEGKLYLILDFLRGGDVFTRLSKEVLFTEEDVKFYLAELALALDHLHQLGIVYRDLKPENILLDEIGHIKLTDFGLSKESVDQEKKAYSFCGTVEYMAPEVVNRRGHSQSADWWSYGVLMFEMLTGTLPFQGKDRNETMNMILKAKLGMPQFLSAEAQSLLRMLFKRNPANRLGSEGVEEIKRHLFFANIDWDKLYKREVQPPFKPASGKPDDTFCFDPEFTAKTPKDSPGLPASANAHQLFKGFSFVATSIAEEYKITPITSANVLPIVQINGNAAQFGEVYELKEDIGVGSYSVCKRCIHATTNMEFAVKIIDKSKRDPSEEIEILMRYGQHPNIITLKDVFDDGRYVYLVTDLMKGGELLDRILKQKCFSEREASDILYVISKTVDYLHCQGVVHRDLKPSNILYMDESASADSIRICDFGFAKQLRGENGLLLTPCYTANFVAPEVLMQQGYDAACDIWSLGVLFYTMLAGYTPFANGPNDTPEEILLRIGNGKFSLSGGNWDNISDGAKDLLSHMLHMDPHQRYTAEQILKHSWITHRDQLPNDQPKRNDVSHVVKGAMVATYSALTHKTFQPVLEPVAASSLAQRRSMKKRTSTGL
Sequence of CAMK1D (human) (Q8IU85 whole entry, looked up): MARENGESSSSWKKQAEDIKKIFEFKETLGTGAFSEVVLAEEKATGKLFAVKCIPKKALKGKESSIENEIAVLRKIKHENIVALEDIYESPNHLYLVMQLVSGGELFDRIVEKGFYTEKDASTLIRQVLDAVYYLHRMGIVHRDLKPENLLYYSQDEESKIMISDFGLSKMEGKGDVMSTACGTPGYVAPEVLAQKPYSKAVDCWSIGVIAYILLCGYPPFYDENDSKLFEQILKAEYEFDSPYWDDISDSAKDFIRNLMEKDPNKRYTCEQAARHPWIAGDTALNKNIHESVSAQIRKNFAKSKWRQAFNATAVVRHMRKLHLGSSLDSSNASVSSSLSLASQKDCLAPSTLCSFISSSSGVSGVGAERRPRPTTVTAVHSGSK

SMILES	kinase still bound, per cent of control [1]	kinase still bound, per cent of control [2]	kinase still bound, per cent of control [3]	kinase still bound, per cent of control [4]	kinase still bound, per cent of control [5]	kinase still bound, per cent of control [6]	kinase still bound, per cent of control [7]	kinase still bound, per cent of control [8]	kinase still bound, per cent of control [9]	kinase still bound, per cent of control [10]	kinase still bound, per cent of control [11]	kinase still bound, per cent of control [12]	kinase still bound, per cent of control [13]	kinase still bound, per cent of control [14]	kinase still bound, per cent of control [15]	kinase still bound, per cent of control [16]	kinase still bound, per cent of control [17]	kinase still bound, per cent of control [18]	kinase still bound, per cent of control [19]	kinase still bound, per cent of control [20]	also measured
OCCCNc1cc(-c2ccnc(Nc3cccc(Cl)c3)n2)ccn1	100%	100%	100%	100%	100%	100%	100%	100%	100%	100%	100%	100%	100%	100%	100%	100%	100%	100%	100%	2%	kinase still bound, per cent of control [21]: 100%; kinase still bound, per cent of control [22]: 100%; kinase still bound, per cent of control [23]: 100%; kinase still bound, per cent of control [24]: 100%; kinase still bound, per cent of control [25]: 100%; kinase still bound, per cent of control [26]: 100%; kinase still bound, per cent of control [27]: 100%; kinase still bound, per cent of control [28]: 100%; kinase still bound, per cent of control [29]: 100%; kinase still bound, per cent of control [30]: 100%; kinase still bound, per cent of control [31]: 100%; kinase still bound, per cent of control [32]: 100%; kinase still bound, per cent of control [33]: 100%; kinase still bound, per cent of control [34]: 100%; kinase still bound, per cent of control [35]: 100%; kinase still bound, per cent of control [36]: 100%; kinase still bound, per cent of control [37]: 100%; kinase still bound, per cent of control [38]: 100%; kinase still bound, per cent of control [39]: 100%; kinase still bound, per cent of control [40]: 100%
Cc1ccc2nc(NCCN)c3ncc(C)n3c2c1	93%	100%	99%	69%	100%	100%	0.95%	47%	100%	76%	100%	100%	100%	98%	88%	100%	100%	84%	92%	19%	kinase still bound, per cent of control [21]: 100%; kinase still bound, per cent of control [22]: 100%; kinase still bound, per cent of control [23]: 8.8%; kinase still bound, per cent of control [24]: 100%; kinase still bound, per cent of control [25]: 89%; kinase still bound, per cent of control [26]: 88%; kinase still bound, per cent of control [27]: 95%; kinase still bound, per cent of control [28]: 92%; kinase still bound, per cent of control [29]: 100%; kinase still bound, per cent of control [30]: 100%; kinase still bound, per cent of control [31]: 100%; kinase still bound, per cent of control [32]: 100%; kinase still bound, per cent of control [33]: 100%; kinase still bound, per cent of control [34]: 100%; kinase still bound, per cent of control [35]: 85%; kinase still bound, per cent of control [36]: 40%; kinase still bound, per cent of control [37]: 100%; kinase still bound, per cent of control [38]: 100%; kinase still bound, per cent of control [39]: 76%; kinase still bound, per cent of control [40]: 100%
O=C1Nc2ccc(I)cc2/C1=C/c1cc(Br)c(O)c(Br)c1	100%	100%	12%	76%	100%	7.6%	100%	6.2%	94%	100%	100%	100%	50%	100%	79%	81%	86%	80%	68%	61%	kinase still bound, per cent of control [21]: 100%; kinase still bound, per cent of control [22]: 100%; kinase still bound, per cent of control [23]: 14%; kinase still bound, per cent of control [24]: 100%; kinase still bound, per cent of control [25]: 55%; kinase still bound, per cent of control [26]: 100%; kinase still bound, per cent of control [27]: 85%; kinase still bound, per cent of control [28]: 2%; kinase still bound, per cent of control [29]: 100%; kinase still bound, per cent of control [30]: 100%; kinase still bound, per cent of control [31]: 83%; kinase still bound, per cent of control [32]: 100%; kinase still bound, per cent of control [33]: 76%; kinase still bound, per cent of control [34]: 58%; kinase still bound, per cent of control [35]: 63%; kinase still bound, per cent of control [36]: 1.7%; kinase still bound, per cent of control [37]: 100%; kinase still bound, per cent of control [38]: 100%; kinase still bound, per cent of control [39]: 12%; kinase still bound, per cent of control [40]: 100%

Source: the kinase profiling compilation of Christmann-Franck et al. (2016)
